# Laboratory results reported in US20240270762A1, “PENICILLIN-BINDING PROTEIN INHIBITORS” (priority 2021, published 2024).
# Legend:
# A. baumannii PBP2 = A. baumannii PBP2 (Acinetobacter baumannii, UniProt D0C8Z9); assay: Bocillin-FL competition binding via gel filtration, A. baumannii PBP2
# Method in brief: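 Enzyme pre-incubated with increasing inhibitor concentrations, then Bocillin-FL added for 15 min further incubation. Bocillin-FL-bound PBP separated by gel filtration and fluorescence read. EC50 from fitting fraction PBP bound vs inhibitor concentration to a Hill-type equation (ymin, ymax, n).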
# A. baumannii CDC-0083 = assay: microbe, parasite or virus in culture; type: cell-based; conditions: Acinetobacter baumannii, CDC0083, read-out: MIC, A. baumannii CDC-0083
# [1] = system: B. thailandensis ATCC 700388; assay: microbe, parasite or virus in culture; type: cell-based; conditions: Burkholderia thailandensis, ATCC700388, read-out: Minimum inhibitory concentration (MIC), B. thailandensis ATCC 700388
# [2] = target: T1, PBP3 from Pseudomonas aeruginosa (PAO1) (Pseudomonas aeruginosa, UniProt G3XD46); assay: Bocillin-FL fluorescence polarization competition binding, P. aeruginosa PBP3; conditions: Binding affinity to P. aeruginosa PBP3; fluorescence polarization competition binding assay using Bocillin-FL; read-out: P. aeruginosa PBP3 Potency
# T1 construct: made in house
# Method in brief: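 Purified PBPs pre-incubated with inhibitor (E. coli PBP3 1.5 μM, 30 min; P. aeruginosa PBP3 0.75 μM, A. baumannii PBP1a 1 μM and PBP3 0.2 μM, 15 min), then Bocillin-FL 0.1 μM (0.05 μM for PBP1a) added; FP read up to 60 min. EC50 = concentration halving bound Bocillin-FL.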
# A. baumannii ATCC 17978 = assay: microbe, parasite or virus in culture; type: cell-based; conditions: Acinetobacter baumannii, ATCC17978, read-out: MIC, A. baumannii ATCC 17978
# A. baumannii CDC-0036 = assay: microbe, parasite or virus in culture; type: cell-based; conditions: Acinetobacter baumannii, CDC0036, read-out: MIC, A. baumannii CDC-0036
# [3] = system: B. humptydooensis ATCC BAA-2767; assay: microbe, parasite or virus in culture; type: cell-based; conditions: Burkholderia humptydooensis, ATCCBAA2767, read-out: Minimum inhibitory concentration (MIC), B. humptydooensis ATCC BAA-2767
# A. baumannii 1258916 = assay: microbe, parasite or virus in culture; type: cell-based, Acinetobacter baumannii; conditions: Acinetobacter baumannii, 1258916, read-out: MIC, A. baumannii 1258916
# A. baumannii CDC-0033 = assay: microbe, parasite or virus in culture; type: cell-based; conditions: Acinetobacter baumannii, CDC0033, read-out: MIC, A. baumannii CDC-0033
# A. baumannii ATCC 19606 = assay: microbe, parasite or virus in culture; type: cell-based; conditions: Acinetobacter baumannii, ATCC19606, read-out: MIC, A. baumannii ATCC 19606
# P. aeruginosa CDC-0095 = assay: microbe, parasite or virus in culture; type: cell-based; conditions: Pseudomonas aeruginosa, CDC0095, read-out: Minimum inhibitory concentration, P. aeruginosa CDC-0095
# P. aeruginosa ATCC 35151 = assay: microbe, parasite or virus in culture; type: cell-based; conditions: Pseudomonas aeruginosa, ATCC35151, read-out: Minimum inhibitory concentration, P. aeruginosa ATCC 35151
# A. baumannii CDC-0045 = assay: microbe, parasite or virus in culture; type: cell-based; conditions: Acinetobacter baumannii, CDC0045, read-out: MIC, A. baumannii CDC-0045
# A. baumannii PBP2, sequence (D0C8Z9 whole entry): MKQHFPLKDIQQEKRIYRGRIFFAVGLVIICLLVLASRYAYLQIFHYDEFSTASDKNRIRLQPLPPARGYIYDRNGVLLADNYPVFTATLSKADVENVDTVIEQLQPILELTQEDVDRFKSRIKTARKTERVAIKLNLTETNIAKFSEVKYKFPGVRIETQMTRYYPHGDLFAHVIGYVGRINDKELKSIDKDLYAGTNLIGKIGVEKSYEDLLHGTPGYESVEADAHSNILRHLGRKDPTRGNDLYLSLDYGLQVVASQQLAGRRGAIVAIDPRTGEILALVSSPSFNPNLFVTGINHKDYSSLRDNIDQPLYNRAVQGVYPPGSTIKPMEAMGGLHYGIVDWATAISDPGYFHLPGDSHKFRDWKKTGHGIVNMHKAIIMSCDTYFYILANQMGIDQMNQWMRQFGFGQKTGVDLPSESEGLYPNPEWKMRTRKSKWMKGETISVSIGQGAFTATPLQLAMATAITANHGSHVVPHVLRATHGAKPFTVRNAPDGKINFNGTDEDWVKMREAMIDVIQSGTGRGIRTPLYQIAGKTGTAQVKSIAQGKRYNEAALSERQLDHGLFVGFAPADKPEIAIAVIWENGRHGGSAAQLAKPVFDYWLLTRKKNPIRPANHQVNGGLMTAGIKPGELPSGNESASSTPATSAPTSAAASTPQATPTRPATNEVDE
# T1 sequence (G3XD46 whole entry): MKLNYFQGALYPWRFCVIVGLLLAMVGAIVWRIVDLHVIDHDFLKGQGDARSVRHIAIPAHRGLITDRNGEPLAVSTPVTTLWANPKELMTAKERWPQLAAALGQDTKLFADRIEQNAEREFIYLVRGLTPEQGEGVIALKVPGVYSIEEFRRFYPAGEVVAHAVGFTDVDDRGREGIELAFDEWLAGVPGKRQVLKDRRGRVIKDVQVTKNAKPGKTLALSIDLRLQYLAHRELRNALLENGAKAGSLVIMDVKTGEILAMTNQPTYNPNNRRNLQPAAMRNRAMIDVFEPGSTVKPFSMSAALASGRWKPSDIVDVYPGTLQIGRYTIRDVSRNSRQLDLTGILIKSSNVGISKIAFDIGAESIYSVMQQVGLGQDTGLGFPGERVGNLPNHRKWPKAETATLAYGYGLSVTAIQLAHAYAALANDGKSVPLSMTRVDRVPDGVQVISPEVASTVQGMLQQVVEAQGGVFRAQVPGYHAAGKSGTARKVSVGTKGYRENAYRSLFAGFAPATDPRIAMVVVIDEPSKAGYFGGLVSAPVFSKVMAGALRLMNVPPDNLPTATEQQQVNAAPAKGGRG
smiles,measurement,setting,value
"CN(CCCN1CCN(C(=O)NC(C(=O)N[C@H]2Cc3ccc(F)c(C(=O)O)c3OB2O)c2cc(F)c(O)c(O)c2Cl)C(=O)C1=O)C(=O)c1cccc(O)c1 (stereo partly drawn) [Example 310, (3R)-3-(2-(2-chloro-5-fluoro-3,4-dihydroxyphenyl)-2-(4-(3-(3-hydroxy-N-methylbenzamido)propyl)-2,3-dioxopiperazine-1-carboxamido)acetamido)-7-fluoro-2-hydroxy-3,4-dihydro-2H-benzo[e][1,2]oxaborinine-8-carboxylic acid]",EC50,A. baumannii PBP2,10 to 50 µM
same,MIC,A. baumannii CDC-0083,< 1 µg/mL
same,MIC,[1],2 to 4 µg/mL
same,IC50,[2],< 10 µM
same,MIC,A. baumannii ATCC 17978,< 1 µg/mL
same,MIC,A. baumannii CDC-0036,2 to 4 µg/mL
same,MIC,[3],< 1 µg/mL
same,MIC,A. baumannii 1258916,< 1 µg/mL
same,MIC,A. baumannii CDC-0033,2 to 4 µg/mL
same,MIC,A. baumannii ATCC 19606,< 1 µg/mL
same,MIC,P. aeruginosa CDC-0095,2 to 4 µg/mL
same,MIC,P. aeruginosa ATCC 35151,< 1 µg/mL
same,MIC,A. baumannii CDC-0045,< 1 µg/mL
